Test systems include OVCAR-3 ovarian; HCT-116 colon; SK-MEL-28 melanoma; RPMI-8226 leukemia; MOLT-4 leukemia; NCI-H226 lung; SN12C renal; SNB-19 CNS; OVCAR-5 ovarian; HOP-92 NSCLC; NCI-H522 lung; NCI-H23 lung; SK-MEL-5 melanoma; U251 CNS; RXF 393 renal.
Common to all, as to experiment: growth of human tumour cells (NCI), 48 h

SMILES strings stand for the structures.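 Five compound concentrations were applied to cells in 96-well plates for 48 hours; endpoints were derived by simple linear interpolation of the resulting dose-response curve. TGI is the concentration that stops growth completely.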 Some results are limits rather than exact numbers.

As for `Cc1cccc(NC(=O)/C=C/c2ccc(N(CCC#N)CCC#N)cc2C)c1`, the TGI with OVCAR-3 ovarian, in the test with HCT-116 colon, in the test on SK-MEL-28 melanoma, in the test with RPMI-8226 leukemia, in the test with MOLT-4 leukemia and with NCI-H226 lung was greater than 100 µM in each case. Also, the TGI in the test on SN12C renal, in the test on SNB-19 CNS, with OVCAR-5 ovarian, with HOP-92 NSCLC, in the test with NCI-H522 lung and in the test with NCI-H23 lung was greater than 100 µM in each case. Besides, the TGI with SK-MEL-5 melanoma and in the test on U251 CNS was greater than 100 µM each time.

Consider `CCCCCC(C[N+]1(C)CCOCC1)C(=O)/C=C/c1ccccc1` (stereo not drawn), for which the TGI came to 27.4 µM in the test with OVCAR-3 ovarian; 11.7 µM with HCT-116 colon; 30 µM in the test with SK-MEL-28 melanoma; 8.59 µM with RPMI-8226 leukemia; 27.4 µM in the test on MOLT-4 leukemia; 28.2 µM in the test on RXF 393 renal. Moreover, the TGI in the test on NCI-H226 lung was determined as 25.6 µM; with SN12C renal, 28.6 µM; in the test on SNB-19 CNS, 24.5 µM; in the test with OVCAR-5 ovarian, 37.3 µM; in the test with HOP-92 NSCLC, 35.3 µM; in the test on NCI-H522 lung, 9.39 µM. The values for the TGI in the test with NCI-H23 lung, in the test with SK-MEL-5 melanoma and in the test on U251 CNS were 32 µM, 28.1 µM and 21.2 µM, respectively.

As to `Clc1ccc(-c2c(C3=NCCN3)nnn2-c2ccc(Cl)cc2)cc1`, the TGI with OVCAR-3 ovarian was greater than 100 µM; with HCT-116 colon it was 32.3 µM; in the test on SK-MEL-28 melanoma, 52.5 µM; in the test with RPMI-8226 leukemia, 38.8 µM; in the test with MOLT-4 leukemia, 29 µM; in the test with RXF 393 renal, 75.8 µM. The TGI was greater than 100 µM in the test with NCI-H226 lung; greater than 100 µM in the test with SN12C renal; greater than 100 µM in the test with SNB-19 CNS; greater than 100 µM in the test with OVCAR-5 ovarian; 50.2 µM with HOP-92 NSCLC; 30.1 µM in the test on NCI-H522 lung. Besides, the TGI with NCI-H23 lung is greater than 100 µM; in the test with SK-MEL-5 melanoma it was 30.5 µM; in the test with U251 CNS it was 45.2 µM.

`COC(=O)C(=C/c1ccc(OC)cc1)/C(C(=O)O)=C(/C)c1ccccc1`: the TGI with OVCAR-3 ovarian, with HCT-116 colon, in the test with RPMI-8226 leukemia, in the test on MOLT-4 leukemia, with RXF 393 renal and in the test with NCI-H226 lung was greater than 100 µM throughout. In addition, the TGI in the test on SN12C renal, in the test on SNB-19 CNS, with OVCAR-5 ovarian, in the test with HOP-92 NSCLC, in the test with NCI-H522 lung and in the test on NCI-H23 lung was greater than 100 µM throughout. Further, the TGI with SK-MEL-5 melanoma and in the test on U251 CNS was greater than 100 µM in each case.

As to `COc1cc2c(cc1OCc1ccccc1)CNCC2`, the TGI with OVCAR-3 ovarian, in the test with HCT-116 colon, with SK-MEL-28 melanoma, in the test on MOLT-4 leukemia, in the test with RXF 393 renal and in the test with NCI-H226 lung was greater than 100 µM each time. Besides, the TGI in the test with SN12C renal, in the test on SNB-19 CNS, in the test on OVCAR-5 ovarian, with HOP-92 NSCLC, with NCI-H522 lung and in the test on NCI-H23 lung was greater than 100 µM throughout. Further, the TGI with SK-MEL-5 melanoma and with U251 CNS was greater than 100 µM throughout.

For `COc1ccc(C(=O)C(CO)Oc2ccccc2OC)cc1OC` (stereo not drawn), the TGI with OVCAR-3 ovarian, in the test with HCT-116 colon, in the test on SK-MEL-28 melanoma, with RPMI-8226 leukemia, in the test with MOLT-4 leukemia and in the test with SN12C renal was greater than 100 µM in each case. In addition, the TGI with SNB-19 CNS, in the test on OVCAR-5 ovarian, with NCI-H522 lung, in the test with NCI-H23 lung, in the test on SK-MEL-5 melanoma and in the test with U251 CNS was greater than 100 µM throughout.

As to `O=c1[nH]cc(COCC(F)(F)C(F)(F)C(F)(F)C(F)F)c(=O)[nH]1`, the TGI in the test with OVCAR-3 ovarian, with HCT-116 colon, in the test on SK-MEL-28 melanoma, with RPMI-8226 leukemia, in the test on MOLT-4 leukemia and with RXF 393 renal was greater than 100 µM each time. Also, the TGI in the test with SN12C renal, in the test on SNB-19 CNS, in the test on OVCAR-5 ovarian, with HOP-92 NSCLC, with NCI-H522 lung and with NCI-H23 lung was greater than 100 µM throughout. The TGI in the test on SK-MEL-5 melanoma and with U251 CNS was greater than 100 µM in each case.

Turning to `O=C(C[n+]1ccccc1)NNC(=O)/C(=C/c1ccc2c(c1)OCO2)NC(=O)c1ccccc1`, the TGI with OVCAR-3 ovarian was greater than 100 µM; in the test on HCT-116 colon it was greater than 100 µM; in the test on SK-MEL-28 melanoma, greater than 100 µM; in the test with RPMI-8226 leukemia, 63 µM; in the test with MOLT-4 leukemia, 82.7 µM; in the test with RXF 393 renal it was greater than 83.9 µM. Besides, the TGI with NCI-H226 lung was greater than 92.4 µM; with SN12C renal, greater than 100 µM; in the test on SNB-19 CNS, greater than 100 µM; in the test on OVCAR-5 ovarian, greater than 100 µM; in the test on HOP-92 NSCLC, greater than 100 µM; in the test on NCI-H522 lung, greater than 70.8 µM. Further, the TGI was greater than 100 µM with NCI-H23 lung, 98.4 µM in the test on SK-MEL-5 melanoma and greater than 76.5 µM with U251 CNS.

For `COc1cc2c(cc1OC)C(O)[C@H](Br)C(C)(C)O2` (stereo partly drawn), the TGI in the test on OVCAR-3 ovarian, in the test with HCT-116 colon, in the test with SK-MEL-28 melanoma, with RPMI-8226 leukemia, in the test on MOLT-4 leukemia and in the test on RXF 393 renal was greater than 100 µM each time. For the same compound, the TGI in the test on NCI-H226 lung, with SN12C renal, with SNB-19 CNS, in the test on OVCAR-5 ovarian, with HOP-92 NSCLC and in the test on NCI-H522 lung was greater than 100 µM in each case. Besides, the TGI with NCI-H23 lung, in the test with SK-MEL-5 melanoma and in the test with U251 CNS was greater than 100 µM throughout.

With `CCN1CCN(c2ccc(Nc3ccnc4ccc5nn(C)nc5c34)cc2)CC1`, the TGI is 29.5 µM with OVCAR-3 ovarian; 18.1 µM in the test on HCT-116 colon; 30.5 µM in the test with SK-MEL-28 melanoma; greater than 100 µM in the test with RPMI-8226 leukemia; greater than 100 µM with MOLT-4 leukemia; 22.5 µM with RXF 393 renal. Moreover, the TGI turned out to be 26.2 µM in the test on NCI-H226 lung; 42.3 µM in the test with SN12C renal; 43.9 µM in the test with SNB-19 CNS; 32.5 µM in the test with OVCAR-5 ovarian; 26.5 µM in the test with HOP-92 NSCLC; 23.6 µM in the test with NCI-H522 lung. Also, the TGI with NCI-H23 lung stood at 29.4 µM; in the test with SK-MEL-5 melanoma, 28.5 µM; in the test on U251 CNS, 27 µM.

(Values after PubChem BioAssay (NCI).)
